According to ChEMBL document CHEMBL1268983, “Functionalized benzophenone, thiophene, pyridine, and fluorene thiosemicarbazone derivatives as inhibitors of cathepsin L” (Bioorg Med Chem Lett, 2010):

Legend:
Procathepsin L = Procathepsin L (Homo sapiens, UniProt P07711); test: Inhibition of human liver cathepsin L after 5 mins by microplate reader analysis
Cathepsin B = Cathepsin B (Homo sapiens, UniProt P07858); test: Inhibition of human liver cathepsin B after 5 mins by microplate reader analysis
NCI-H460 = test: Cytotoxicity against human NCI-H460 cells after 48 hrs by SRB assay; format: functional; conditions: NCI-H460, 48 h
DU-145 = test: Cytotoxicity against human DU145 cells after 48 hrs by SRB assay; format: functional; conditions: DU-145, 48 h

Procathepsin L, sequence (P07711 whole entry): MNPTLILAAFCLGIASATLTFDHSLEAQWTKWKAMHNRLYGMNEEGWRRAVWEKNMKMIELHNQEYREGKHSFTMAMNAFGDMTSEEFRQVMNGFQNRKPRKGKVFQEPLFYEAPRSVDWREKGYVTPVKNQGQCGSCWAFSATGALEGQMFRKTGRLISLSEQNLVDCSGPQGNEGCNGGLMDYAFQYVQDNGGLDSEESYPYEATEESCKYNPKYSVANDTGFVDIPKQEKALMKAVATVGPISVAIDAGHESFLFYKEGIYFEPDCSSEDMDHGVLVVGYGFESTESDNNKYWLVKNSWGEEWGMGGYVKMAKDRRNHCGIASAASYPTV

Row | SMILES | IC50 (Procathepsin L) | IC50 (Cathepsin B) | GI50 (NCI-H460) | GI50 (DU-145)
1 | NC(=S)N/N=C(/c1ccccc1)c1cccc(O)c1 | > 10 µM | > 10 µM | – | –
2 | NC(=S)N/N=C(/c1cccc(Br)c1)c1sccc1Br | 0.37 µM | > 10 µM | – | –
3 | NC(=S)N/N=C(/c1cccc(Br)c1)c1cc(Br)cs1 | 0.814 µM | > 10 µM | – | –
4 | NC(=S)N/N=C(/c1ccccc1)c1cccnc1 | > 10 µM | > 10 µM | – | –
5 | NC(=S)N/N=C(\c1cccnc1)c1cccc(Br)c1 | 1 µM | > 10 µM | – | –
6 | NC(=S)N/N=C(\c1ccc(Br)nc1)c1cccc(Br)c1 | > 10 µM | > 10 µM | – | –
7 | NC(=S)N/N=C(/c1cccc(Br)c1)C1CCCCC1 | > 10 µM | > 10 µM | – | –
8 | NC(=S)N/N=C(\Cc1ccccc1)c1ccccc1 | 5.41 µM | > 10 µM | – | –
9 | NC(=S)NN=C1c2ccccc2-c2ccccc21 | > 10 µM | > 10 µM | – | –
10 | CC(C)(C)[Si](C)(C)Oc1ccc(/C(=N\NC(N)=S)c2cccc(Br)c2)cc1Br | > 10 µM | > 10 µM | – | –
11 | COc1ccc(/C(=N\NC(N)=S)c2cc(OC)c(OC)c(OC)c2)cc1O | 3.6 µM | 1.42 µM | – | –
12 | NC(=S)N/N=C(/c1cccc(Br)c1)c1ccc2c(c1)CCCC2 | 9.65 µM | > 10 µM | – | –
13 | NC(=S)N/N=C(/c1cccc(Br)c1)c1ccc(O)c(Br)c1 | 0.126 µM | 9.49 µM | – | –

Now from value to molecule, other results behind:

Row | IC50 (Procathepsin L) | IC50 (Cathepsin B) | SMILES | GI50 (NCI-H460) | GI50 (DU-145)
14 | > 10 µM | > 10 µM | NC(=S)NN=C1c2cc(Br)ccc2-c2ccc(Br)cc21 | – | –
15 | 0.131 µM | > 10 µM | NC(=S)N/N=C(\c1cccc(O)c1)c1cccc(Br)c1 | 23.3 µM | 21.6 µM
16 | > 10 µM | > 10 µM | NC(=S)N/N=C(/c1ccccc1)c1cccs1 | – | –
17 | 0.931 µM | > 10 µM | NC(=S)N/N=C(/c1cccc(Br)c1)c1ccc(Br)s1 | – | –
18 | > 10 µM | > 10 µM | NC(=S)N/N=C(/c1cccc(Br)c1)c1cccnc1Br | – | –
19 | 0.232 µM | > 10 µM | NC(=S)N/N=C(/c1cccc(Br)c1)c1cc(O)cc(Br)c1 | – | –
20 | > 10 µM | > 10 µM | CC(C)(C)[Si](C)(C)Oc1cc(Br)cc(/C(=N\NC(N)=S)c2cccc(Br)c2)c1 | – | –
21 | > 10 µM | > 10 µM | NC(=S)N/N=C(/c1cccc(Br)c1)c1cccc(Br)c1O | – | –
22 | 0.151 µM | 1.6 µM | CC(=O)Oc1cccc(/C(=N\NC(N)=S)c2cccc(Br)c2)c1 | – | –
23 | > 10 µM | > 10 µM | NC(=S)N/N=C(/c1cccc(Br)c1)c1cccc(OCc2ccccc2)c1 | – | –
24 | > 10 µM | > 10 µM | CC(C)(C)[Si](C)(C)Oc1cccc(/C(=N\NC(N)=S)c2cccc(Br)c2)c1 | – | –
25 | > 10 µM | > 10 µM | NC(=S)NN=C(c1ccccc1)c1ccccc1 [BENZOPHENONE-THIOSEMICARBAZONE] | – | –
